The text below walks through data of US20220306695A1, “COMPSTATIN ANALOGUES AND THEIR MEDICAL USES” (priority 2019, published 2022).

Where two headings read alike, the source gives them in different places. Starred links: 1 amine or outer side, 2 acyl side, 3 side chain; linkers in the order of their positions; H or OH if unused. Positions of bridges follow the written chain, without caps; N, C: chain ends. Non-standard residues stand in square brackets, D forms with d. Residues, ends and D or L forms follow the SMILES beside them. Groups on a side chain read outwards from the residue. *: point of attachment. Trp(1-Me) = Cn1cc(C[C@H](N)C(=O)O)c2ccccc21; Abu(4-yl) = O=C([C@H](CC[*:3])N[*:1])[*:2]; C18 diacid = O=C(O)CCCCCCCCCCCCCCCCC(=O)*; γGlu = O=C(O)[C@H](CCC(=O)[*:2])N[*:1]; Nva = CCC[C@H](N)C(=O)O; AEEA = NCCOCCOCC(=O)O; Sar = CNCC(=O)O

For this assay, the system named is classical complement pathway. Kind of assay: In vitro haemolysis assay (inhibition of classical complement pathway). The class given is cell-based, human. The gist of the method:
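Serially diluted compound (9 points) was preincubated 15 min at room temperature with diluted human serum, titrated per batch to give 70-90% maximal haemolysis, in Tris/casein buffer pH 7.4 with Mg2+/Ca2+. Antibody-sensitized sheep erythrocytes were then added for 30 min at 37° C, and the reaction was stopped with EDTA. Haemolysis was read at A405, with IC50 from 4PL fit.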

Where [1] appears, read: Table 3, human serum, sensitized sheep red blood cells, read-out: IC50[nM], in vitro analysis of inhibition of hemolysis.

Usually IC50 stands for the midpoint of a concentration-inhibition curve. For `CC[C@H](C)[C@H](NC(C)=O)C(=O)N[C@H]1CSSC[C@@H](C(=O)N[C@H](C(N)=O)[C@@H](C)O)NC(=O)[C@H](CCCNC(=N)N)NC(=O)[C@H](Cc2c[nH]cn2)NC(=O)[C@H](C)NC(=O)CNC(=O)[C@H](Cc2c[nH]c3ccccc23)NC(=O)[C@H](CC(=O)O)NC(=O)[C@H](CCC(N)=O)NC(=O)[C@H](Cc2c[nH]c3ccccc23)NC(=O)[C@H](C(C)C)NC1=O` [Compound 4W9A, reference compound], the half-inhibitory concentration (IC50) runs as follows: (Table 2, human serum, sensitized sheep red blood cells, read-out: CP hemolysis IC50) 250 nM; under setting [1], less than 500 nM.

As for `CC[C@H](C)[C@@H]1NC(=O)[C@@H](NC(=O)[C@H](Cc2ccccc2)NC(=O)[C@H](CCC(=O)O)NC(=O)[C@H](CO)NC(C)=O)CSSC[C@@H](C(=O)N[C@@H](CO)C(=O)N[C@@H](CCC(=O)O)C(=O)N[C@@H](C)C(N)=O)NC(=O)[C@H](CCCNC(=N)N)NC(=O)[C@H](Cc2c[nH]cn2)NC(=O)[C@H](CCC(=O)O)NC(=O)CNC(=O)[C@H](Cc2c[nH]c3ccccc23)NC(=O)[C@H](CC(=O)O)NC(=O)[C@H](CCC(N)=O)NC(=O)[C@H](Cc2cn(C)c3ccccc23)NC1=O` [Compound 84] (Ac-SEFCI[Trp(1-Me)]QDWGEHRCSEA-NH2; disulfide 4-14), under setting [1], the IC50 is less than 100 nM.

Regarding `CC[C@H](C)[C@H](NC(C)=O)C(=O)N[C@H]1CSSC[C@@H](C(=O)N[C@@H](CCC(=O)O)C(N)=O)NC(=O)[C@H](CCCNC(=N)N)NC(=O)[C@H](Cc2c[nH]cn2)NC(=O)[C@H](C)NC(=O)CNC(=O)[C@H](Cc2c[nH]c3ccccc23)NC(=O)[C@H](CC(=O)O)NC(=O)[C@H](CCC(N)=O)NC(=O)[C@H](Cc2c[nH]c3ccccc23)NC(=O)[C@H]([C@@H](C)CC)NC1=O` [Compound 12] (Ac-ICIWQDWGAHRCE-NH2; disulfide 2-12), the IC50 under setting [1] was less than 100 nM.

Take `CCC[C@@H]1NC(=O)[C@@H](NC(=O)[C@@H](NC(C)=O)[C@@H](C)CC)CSSC[C@@H](C(=O)N[C@H](C(N)=O)[C@@H](C)O)NC(=O)[C@H](CCCNC(=N)N)NC(=O)[C@H](Cc2c[nH]cn2)NC(=O)[C@H](CCC(=O)O)NC(=O)CNC(=O)[C@H](Cc2c[nH]c3ccccc23)NC(=O)[C@H](CC(=O)O)NC(=O)[C@H](CCC(N)=O)NC(=O)[C@H](Cc2c[nH]c3ccccc23)NC1=O` [Norvaline, reference compound] (Ac-IC[Nva]WQDWGEHRCT-NH2; disulfide 2-12): the half-maximal inhibitory concentration (IC50) (Table 5, different residues at position 3 of Ac-IC(1)XWQDWGEHRC(1)T-NH2, read-out: IC50, CP hemolysis) was more than 1000 nM.

Regarding `CC[C@H](C)[C@@H]1NC(=O)[C@@H](NC(=O)[C@H](Cc2ccccc2)NC(=O)[C@H](CCC(=O)O)NC(C)=O)CSCC[C@@H](C(=O)N(C)CC(=O)N[C@@H](CCC(=O)O)C(=O)N[C@@H](C)C(=O)NCCOCCOCC(=O)NCCOCCOCC(=O)N[C@@H](CCCCNC(=O)CC[C@H](NC(=O)CNC(=O)CC[C@H](NC(=O)CCCCCCCCCCCCCCCCC(=O)O)C(=O)O)C(=O)O)C(N)=O)NC(=O)[C@H](CCCNC(=N)N)NC(=O)[C@H](Cc2c[nH]cn2)NC(=O)[C@H](CCC(=O)O)NC(=O)CNC(=O)[C@H](Cc2c[nH]c3ccccc23)NC(=O)[C@H](CCC(=O)O)NC(=O)[C@H](CCC(N)=O)NC(=O)[C@H](Cc2cn(C)c3ccccc23)NC1=O` [Compound 158, Ac-EFA(1)I[1-Me-Trp]QEWGEHRhC(1)[Sar]EA[Peg3][Peg3]-K([17-carboxy-heptadecanoyl][γGlu]G[γGlu])-NH2] (Ac-EFCI[Trp(1-Me)]QEWGEHR[Abu(4-yl)][Sar]EA[AEEA][AEEA]K([γGlu-Gly-γGlu-C18 diacid])-NH2; thioether 3-13), the IC50 under setting [1] is less than 250 nM.

As for `CC[C@H](C)[C@H](NC(=O)[C@H](C)NC(=O)[C@H](CO)NC(=O)[C@H](CO)NC(=O)[C@H](CCC(=O)O)NC(C)=O)C(=O)N[C@H]1CSSC[C@@H](C(=O)N[C@H](C(N)=O)[C@@H](C)O)NC(=O)[C@H](CCCNC(=N)N)NC(=O)[C@H](Cc2c[nH]cn2)NC(=O)[C@H](C)NC(=O)CNC(=O)[C@H](Cc2c[nH]c3ccccc23)NC(=O)[C@H](CC(=O)O)NC(=O)[C@H](CCC(N)=O)NC(=O)[C@H](Cc2c[nH]c3ccccc23)NC(=O)[C@H]([C@@H](C)CC)NC1=O` [Compound 46] (Ac-ESSAICIWQDWGAHRCT-NH2; disulfide 6-16), the half-maximal inhibitory concentration (IC50) under setting [1] is less than 100 nM.

For `CC[C@H](C)[C@@H]1NC(=O)[C@@H](NC(=O)CN(C)C(=O)[C@H](N)Cc2ccc(O)cc2)CSSC[C@@H](C(=O)N[C@H](C(=O)N[C@@H](CCC(=O)O)C(=O)N[C@@H](C)C(N)=O)[C@@H](C)O)NC(=O)[C@H](CCCNC(=N)N)NC(=O)[C@H](Cc2c[nH]cn2)NC(=O)[C@H](CCC(=O)O)NC(=O)CNC(=O)[C@H](Cc2c[nH]c3ccccc23)NC(=O)[C@H](CC(=O)O)NC(=O)[C@H](CCC(N)=O)NC(=O)[C@H](Cc2cn(C)c3ccccc23)NC1=O` [Compound 91] (H-[dY][Sar]CI[Trp(1-Me)]QDWGEHRCTEA-NH2; disulfide 3-13), under setting [1], the IC50 was less than 100 nM.

Consider `CC[C@H](C)[C@H](NC(C)=O)C(=O)N[C@H]1CSSC[C@@H](C(=O)N[C@H](C(N)=O)[C@@H](C)O)NC(=O)[C@H](CCCNC(=N)N)NC(=O)[C@H](Cc2c[nH]cn2)NC(=O)[C@H](CCC(=O)O)NC(=O)CNC(=O)[C@H](Cc2c[nH]c3ccccc23)NC(=O)[C@H](CCCCN)NC(=O)[C@H](CCC(N)=O)NC(=O)[C@H](Cc2c[nH]c3ccccc23)NC(=O)[C@H]([C@@H](C)CC)NC1=O` [Compound 7] (Ac-ICIWQKWGEHRCT-NH2; disulfide 2-12), for which the 50% inhibitory concentration (IC50) under setting [1] is less than 1000 nM.

With `CC[C@H](C)[C@@H]1NC(=O)[C@@H](NC(=O)[C@H](Cc2ccccc2)NC(=O)[C@H](CCC(=O)O)NC(=O)[C@H](CO)NC(C)=O)CSSC[C@@H](C(=O)N[C@H](C(=O)N[C@@H](CCC(=O)O)C(=O)NCC(=O)N[C@@H](CCC(=O)O)C(=O)NCC(=O)NCC(=O)NCC(=O)N[C@@H](CCCCNC(=O)CC[C@H](NC(=O)CNC(=O)CC[C@H](NC(=O)CCCCCCCCCCCCCCCCC(=O)O)C(=O)O)C(=O)O)C(N)=O)[C@@H](C)O)NC(=O)[C@H](CCCNC(=N)N)NC(=O)[C@H](Cc2c[nH]cn2)NC(=O)[C@H](CCC(=O)O)NC(=O)CNC(=O)[C@H](Cc2c[nH]c3ccccc23)NC(=O)[C@H](CC(=O)O)NC(=O)[C@H](CCC(N)=O)NC(=O)[C@H](Cc2cn(C)c3ccccc23)NC1=O` [Compound 130] (Ac-SEFCI[Trp(1-Me)]QDWGEHRCTEGEGGGK([γGlu-Gly-γGlu-C18 diacid])-NH2; disulfide 4-14), the IC50 under setting [1] is less than 100 nM.

For the compound `CC[C@H](C)[C@H](NC(C)=O)C(=O)N[C@H]1CSSC[C@@H](C(=O)N[C@H](C(=O)N[C@@H](CCC(=O)O)C(=O)NCC(=O)N[C@@H](CCCCNC(=O)COCCOCCNC(=O)COCCOCCNC(=O)CC[C@H](NC(=O)CCCCCCCCCCCCCCCCC(=O)O)C(=O)O)C(N)=O)[C@@H](C)O)NC(=O)[C@H](CCCNC(=N)N)NC(=O)[C@H](Cc2c[nH]cn2)NC(=O)[C@H](CCC(=O)O)NC(=O)CNC(=O)[C@H](Cc2c[nH]c3ccccc23)NC(=O)[C@H](CC(=O)O)NC(=O)[C@H](CCC(N)=O)NC(=O)[C@H](Cc2c[nH]c3ccccc23)NC(=O)[C@H]([C@@H](C)CC)NC1=O` [Compound 96] (Ac-ICIWQDWGEHRCTEGK([AEEA-AEEA-γGlu-C18 diacid])-NH2; disulfide 2-12), under setting [1], the IC50 was less than 1000 nM.

As for `CC[C@H](C)[C@@H]1NC(=O)[C@@H](NC(=O)[C@H](Cc2ccccc2)NC(=O)[C@H](CCC(=O)O)NC(=O)[C@H](CO)NC(C)=O)CSSC[C@@H](C(=O)N(C)CC(=O)N[C@@H](CCC(=O)O)C(=O)NCC(=O)N[C@@H](CCC(=O)O)C(=O)NCCOCCOCC(=O)N[C@@H](CCCCNC(=O)CC[C@H](NC(=O)CNC(=O)CC[C@H](NC(=O)CCCCCCCCCCCCCCCCC(=O)O)C(=O)O)C(=O)O)C(N)=O)NC(=O)[C@H](CCCNC(=N)N)NC(=O)[C@H](Cc2c[nH]cn2)NC(=O)[C@H](CCC(=O)O)NC(=O)CNC(=O)[C@H](Cc2c[nH]c3ccccc23)NC(=O)[C@H](CC(=O)O)NC(=O)[C@H](CCC(N)=O)NC(=O)[C@H](Cc2cn(C)c3ccccc23)NC1=O` [Compound 138] (Ac-SEFCI[Trp(1-Me)]QDWGEHRC[Sar]EGE[AEEA]K([γGlu-Gly-γGlu-C18 diacid])-NH2; disulfide 4-14), under setting [1], the 50% inhibitory concentration (IC50) is less than 100 nM.

Consider `CC[C@H](C)[C@@H]1NC(=O)[C@@H](NC(=O)[C@H](Cc2ccccc2)NC(=O)[C@H](CCC(=O)O)NC(=O)[C@H](CO)NC(C)=O)CSCC[C@@H](C(=O)N[C@H](C(=O)N[C@@H](CCC(=O)O)C(=O)NCC(=O)N[C@@H](CCC(=O)O)C(=O)NCCOCCOCC(=O)N[C@@H](CCC(=O)O)C(=O)N[C@@H](CO)C(=O)N[C@@H](CCCCNC(=O)CC[C@H](NC(=O)CCCCCCCCCCCCCCCCC(=O)O)C(=O)O)C(=O)O)[C@@H](C)O)NC(=O)[C@H](CCCNC(=N)N)NC(=O)[C@H](Cc2c[nH]cn2)NC(=O)[C@H](CCC(=O)O)NC(=O)CNC(=O)[C@H](Cc2c[nH]c3ccccc23)NC(=O)[C@H](CC(=O)O)NC(=O)[C@H](CCC(N)=O)NC(=O)[C@H](Cc2cn(C)c3ccccc23)NC1=O` [Compound 163, Ac-SEFA(1)I[1-Me-Trp]QDWGEHRhC(1)TEGE[Peg3]ES-K([17-carboxy-heptadecanoyl][γGlu])-OH] (Ac-SEFCI[Trp(1-Me)]QDWGEHR[Abu(4-yl)]TEGE[AEEA]ESK([γGlu-C18 diacid])-OH; thioether 4-14), for which, under setting [1], the IC50 is less than 100 nM.

In the case of `CC[C@H](C)[C@@H]1NC(=O)[C@@H](NC(=O)[C@H](Cc2ccccc2)NC(C)=O)CSSC[C@@H](C(=O)N[C@H](C(=O)NCC(=O)N[C@@H](C)C(=O)N[C@@H](CCC(=O)O)C(N)=O)[C@@H](C)O)NC(=O)[C@H](CCCNC(=N)N)NC(=O)[C@H](Cc2c[nH]cn2)NC(=O)[C@H](CCC(=O)O)NC(=O)CNC(=O)[C@H](Cc2c[nH]c3ccccc23)NC(=O)[C@H](CC(=O)O)NC(=O)[C@H](CCC(N)=O)NC(=O)[C@H](Cc2c[nH]c3ccccc23)NC1=O` [Compound 43] (Ac-FCIWQDWGEHRCTGAE-NH2; disulfide 2-12), the IC50 under setting [1] is less than 100 nM.
